Source: patent US11266706B2, “Method for preventing or alleviating lipid metabolism disorders using composition containing green tea extract with increased specific ingredient content” (AMOREPACIFIC CORPORATION, priority 2017, dated 2022)

Test: Stability of each ingredient according to time and temperature (HPLC content)
Assay type: physicochemical
Design: content of ingredient: unit not given here
Settings: for stability of ingredient content over time and temperature: summary in words of Table 3, FIGS. 6 to 8
Procedure: In order to compare the catechin contents of the fermented green tea extract, each sample was analyzed by WATERS 2695 HPLC manufactured by Alliance, and analyzed using an ODS (C18) column. […] Each numerical value in Table 1 indicates the wt % of the corresponding ingredient, based on the total weight ratio of the extract.

[1] = Week 16: 45° C./Normal pressure
[2] = Week 16: Room temperature/Normal pressure
[3] = Week 25: 45° C./Normal pressure
[4] = Week 25: Refrigerated/Normal pressure
[5] = Week 25: Room temperature/Normal pressure

Compound	content of ingredient (Day 1 (Feb. 20, 2017))	content of ingredient (Week 1 (Feb. 27, 2017))	content of ingredient (Week 2 (Mar. 6, 2017))	content of ingredient [1]	content of ingredient [2]	content of ingredient [3]	content of ingredient [4]	content of ingredient [5]	stability of ingredient content over time and temperature
Oc1cc(O)c2c(c1)O[C@H](c1cc(O)c(O)c(O)c1)[C@H](O)C2 [EGC, epigallocatechin]	2.12	2.12	2.19	2.50	2.84	2.28	2.61	2.06	
O=C(O[C@@H]1Cc2c(O)cc(O)cc2O[C@H]1c1cc(O)c(O)c(O)c1)c1cc(O)c(O)c(O)c1 [GCG, (−)-gallocatechin gallate]	7.80	7.95	7.79	8.74	8.72	7.62	7.93	7.27	maintained relatively stably
(−)-epigallocatechin gallate [EGCG]	7.48	7.70	7.53	7.72	7.79	6.61	7.19	6.19	rapidly decreased after a predetermined period
epicatechin 3-O-gallate [ECG]	2.22	2.28	2.27	2.38	2.36	2.21	2.15	2.02	
